Measurements from ChEMBL document CHEMBL2074433, “Specificity of doxorubicin versus rhodamine-123 in assessing P-glycoprotein functionality in the LLC-PK1, LLC-PK1:MDR1 and Caco-2 cell lines” (Eur J Pharm Sci, 2000).

Target: ATP-dependent translocase ABCB1 (Homo sapiens, UniProt P08183)
Test: TP_TRANSPORTER: inhibition of Doxorubicin transepithelial transport (basal to apical) (Doxorubicin: 3 uM, Quinidine: 50 uM) in MDR1-expressing LLC-PK1 cells
Assay type: functional, cell-based
Details: pig, llc-pk1, 50 µM

ATP-dependent translocase ABCB1, sequence (P08183 whole entry): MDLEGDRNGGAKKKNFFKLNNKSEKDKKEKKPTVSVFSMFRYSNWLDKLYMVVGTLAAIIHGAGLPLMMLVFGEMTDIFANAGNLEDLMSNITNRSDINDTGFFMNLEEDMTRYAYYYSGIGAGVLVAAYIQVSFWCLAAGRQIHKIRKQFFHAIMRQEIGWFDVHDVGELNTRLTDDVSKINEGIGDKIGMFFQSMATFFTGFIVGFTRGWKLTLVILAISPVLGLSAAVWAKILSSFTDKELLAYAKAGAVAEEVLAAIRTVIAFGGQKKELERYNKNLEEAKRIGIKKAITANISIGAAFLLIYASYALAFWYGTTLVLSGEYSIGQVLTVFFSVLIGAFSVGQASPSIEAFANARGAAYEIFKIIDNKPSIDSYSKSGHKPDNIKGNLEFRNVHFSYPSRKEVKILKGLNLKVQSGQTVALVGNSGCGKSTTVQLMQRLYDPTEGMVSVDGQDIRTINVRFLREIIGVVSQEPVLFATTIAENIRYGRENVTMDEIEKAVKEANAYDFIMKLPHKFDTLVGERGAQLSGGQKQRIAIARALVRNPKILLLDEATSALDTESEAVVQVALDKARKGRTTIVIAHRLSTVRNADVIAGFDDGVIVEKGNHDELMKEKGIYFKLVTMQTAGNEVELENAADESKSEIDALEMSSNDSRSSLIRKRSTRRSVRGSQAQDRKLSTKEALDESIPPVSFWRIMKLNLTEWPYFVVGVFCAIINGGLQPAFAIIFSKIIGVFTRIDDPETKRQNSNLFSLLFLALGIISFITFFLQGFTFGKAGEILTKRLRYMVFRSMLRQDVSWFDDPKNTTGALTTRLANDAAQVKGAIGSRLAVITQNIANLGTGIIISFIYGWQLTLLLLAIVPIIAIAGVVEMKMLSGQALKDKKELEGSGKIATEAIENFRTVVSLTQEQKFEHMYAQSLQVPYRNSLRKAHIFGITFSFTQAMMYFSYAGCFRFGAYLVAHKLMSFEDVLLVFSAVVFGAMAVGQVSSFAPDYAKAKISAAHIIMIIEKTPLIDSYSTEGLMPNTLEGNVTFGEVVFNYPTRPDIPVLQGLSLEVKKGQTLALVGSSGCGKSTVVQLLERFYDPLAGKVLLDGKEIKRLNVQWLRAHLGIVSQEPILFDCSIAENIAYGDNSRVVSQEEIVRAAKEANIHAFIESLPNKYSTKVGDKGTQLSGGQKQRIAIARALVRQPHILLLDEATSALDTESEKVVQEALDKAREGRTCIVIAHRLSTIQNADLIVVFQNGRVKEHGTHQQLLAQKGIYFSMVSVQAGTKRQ

Question: `C=C[C@H]1C[N@@]2CC[C@H]1C[C@H]2[C@H](O)c1ccnc2ccc(OC)cc12` [QUININE] was tested. Which Activity did it give?
Answer: Its Activity is “is not an inhibitor [-]”.
